# Patent US10597375B2, “Halogen-substituted heterocyclic compound” (UBE INDUSTRIES, LTD., priority 2012, dated 2020)
# System: A2058 human melanoma cells
# Assay: Cell migration test (LPA-induced, Chemo-Tx)
# Type: cell-based
# Conditions: LPA 100 nM, 3 hours, read-out: IC50: concentration of the test compound which inhibits the cell migration activity of LPA by 50%
# Protocol: The cell migration test was carried out using Chemo-Tx (registered trademark) (116-8, Neuro Probe). A2058 human melanoma cells (obtained from European Collection of Cell Culture) were cultured in a serum-free EMEM medium for 24 hours, and then re-suspended in a 0.1% BSA-containing DMEM medium to obtain a cell suspension. The test compound dissolved in DMSO in various concentration was each added to the cell suspension, and the suspension was cultured at 37° C. for 15 minutes (the final DMSO concentration of 0.5%). LPA dissolved in a 0.1% BSA-containing DMEM medium (the final concentration of 100 nM) was added to Chemo-Tx 96 well plate, and a Chemo-Tx filter which had been coated with 0.001% Fibronectin on the both surfaces was put on the plate. The suspension of cultured cells (25,000 cells) was added onto the upper surface of the filter and further cultured at 37° C. for 3 hours, and the cells on the upper surface of the filter were removed. After the filter was removed and dried, the cells which had migrated to the lower surface of the filter were stained using Diff-Quik stain (16920, Sysmex). The absorbance of the filter (570 nm) was measured and the concentration of the test compound which inhibits the cell migration activity of LPA by 50%, (1050) was determined by non-linear regression analysis using EXSAS (version 7.6.0, Arm Systex).
row,SMILES,IC50 [nM]
1,"CC(OC(=O)Nc1cc(F)sc1-c1ccc(-c2ccc(C3(C(=O)O)CC3)cc2)cc1)c1cc(F)c(F)cc1F (racemic) [I-171, (RS)-1-{4′-[5-Fluoro-3-({[1-(2,4,5-trifluorophenyl)ethoxy]carbonyl}amino)thiophen-2-yl]-[1,1′-biphenyl]-4-yl}cyclopropanecarboxylic acid]",≤ 200
2,"COc1cc(-c2sc(F)cc2NC(=O)OC(C)c2cc(F)ccc2Cl)ccc1-c1ccc(C2(C(=O)O)CC2)cc1 (racemic) [I-469, (RS)-1-{4′-[3-({[1-(2-Chloro-5-fluorophenyl)ethoxy]carbonyl}amino)-5-fluorothiophen-2-yl]-2′-methoxy-[1,1′-biphenyl]-4-yl}cyclopropanecarboxylic acid]",≤ 200
3,"COc1cc(-c2sc(F)cc2NC(=O)OC(C)c2ccc(F)cc2C)ccc1-c1ccc(C2(C(=O)O)CC2)cc1 (racemic) [I-477, (RS)-1-{4′-[5-Fluoro-3-({[1-(4-fluoro-2-methylphenyl)ethoxy]carbonyl}amino)thiophen-2-yl]-2′-methoxy-[1,1′-biphenyl]-4-yl}cyclopropanecarboxylic acid]",≤ 200
4,"COc1cc(-c2sc(F)cc2NC(=O)OC(C)c2cc(F)ccc2C)ccc1-c1ccc(C2(C(=O)O)CC2)cc1 (racemic) [I-481, (RS)-1-{4′-[5-Fluoro-3-({[1-(5-fluoro-2-methylphenyl)ethoxy]carbonyl}amino)thiophen-2-yl]-2′-methoxy-[1,1′-biphenyl]-4-yl}cyclopropanecarboxylic acid]",≤ 200
5,"CC(OC(=O)Nc1cc(Cl)sc1-c1ccc(-c2ccc(C3(C(=O)O)CC3)cc2)cc1)c1ccsc1 (racemic) [I-595, (RS)-1-{4′-[5-Chloro-3-({[1-(thiophen-3-yl)ethoxy]carbonyl}amino)thiophen-2-yl]-[1,1′-biphenyl]-4-yl}cyclopropanecarboxylic acid]",≤ 200
6,"Cc1cscc1C(C)OC(=O)Nc1cc(Cl)sc1-c1ccc(-c2ccc(C3(C(=O)O)CC3)cc2)cc1 (racemic) [I-605, (RS)-1-{4′-[5-Chloro-3-({[1-(4-methylthiophen-3-yl)ethoxy]carbonyl}amino)thiophen-2-yl]-[1,1′-biphenyl]-4-yl}cyclopropanecarboxylic acid]",≤ 200
7,CC(OC(=O)Nc1cc(Cl)sc1-c1ccc(-c2ccc(C3(C(=O)O)CC3)cc2)cc1)c1ccsn1 (racemic) [I-621],≤ 200
8,"CC(OC(=O)Nc1cc(Cl)sc1-c1ccc(-c2ccc(C3(C(=O)O)CC3)cc2)cc1)c1cnsc1 (racemic) [I-625, (RS)-1-{4′-[5-Chloro-3-({[1-(isothiazol-4-yl)ethoxy]carbonyl}amino)thiophen-2-yl]-[1,1′-biphenyl]-4-yl}cyclopropanecarboxylic acid]",≤ 200
9,"COc1cc(-c2sc(Cl)cc2NC(=O)OC(C)c2ccsc2)ccc1-c1ccc(C2(C(=O)O)CC2)cc1 (racemic) [I-779, (RS)-1-{4′-[5-Chloro-3-({[1-(thiophen-3-yl)ethoxy]carbonyl}amino)thiophen-2-yl]-2′-methoxy-[1,1′-biphenyl]-4-yl}cyclopropanecarboxylic acid]",≤ 200
10,"COc1cc(-c2sc(Cl)cc2NC(=O)OC(C)c2cscc2C)ccc1-c1ccc(C2(C(=O)O)CC2)cc1 (racemic) [I-783, (RS)-1-{4′-[5-Chloro-3-({[1-(4-methylthiophen-3-yl)ethoxy]carbonyl}amino)thiophen-2-yl]-2′-methoxy-[1,1′-biphenyl]-4-yl}cyclopropanecarboxylic acid]",≤ 200
11,"COc1cc(-c2sc(Cl)cc2NC(=O)OC(C)c2cscc2Cl)ccc1-c1ccc(C2(C(=O)O)CC2)cc1 (racemic) [I-791, (RS)-1-{4′-[5-Chloro-3-({[1-(4-chlorothiophen-3-yl)ethoxy]carbonyl}amino)thiophen-2-yl]-2′-methoxy-[1,1′-biphenyl]-4-yl}cyclopropanecarboxylic acid]",≤ 200
12,"COc1cc(-c2sc(F)cc2NC(=O)OC(C)c2cscc2C)ccc1-c1ccc(C2(C(=O)O)CC2)cc1 (racemic) [I-815, (RS)-1-{4′-[5-Fluoro-3-({[1-(4-methylthiophen-3-yl)ethoxy]carbonyl}amino)thiophen-2-yl]-2′-methoxy-[1,1′-biphenyl]-4-yl}cyclopropanecarboxylic acid]",≤ 200
13,"COc1cc(-c2sc(F)cc2NC(=O)OC(C)c2cscc2Cl)ccc1-c1ccc(C2(C(=O)O)CC2)cc1 (racemic) [I-823, (RS)-1-{4′-[3-({[1-(4-Chlorothiophen-3-yl)ethoxy]carbonyl}amino)-5-fluorothiophen-2-yl]-2′-methoxy-[1,1′-biphenyl]-4-yl}cyclopropanecarboxylic acid]",≤ 200
14,"C[C@@H](OC(=O)Nc1cc(Cl)sc1-c1ccc(-c2ccc(C3(C(=O)O)CC3)cc2)cc1)c1ccc(F)c(F)c1 [I-72, (R)-1-{4′-[5-Chloro-3-({[1-(3,4-difluorophenyl)ethoxy]carbonyl}amino)thiophen-2-yl]-[1,1′-biphenyl]-4-yl}cyclopropanecarboxylic acid]",≤ 200
15,"C[C@@H](OC(=O)Nc1cc(F)sc1-c1ccc(-c2ccc(C3(C(=O)O)CC3)cc2)cc1)c1ccc(F)c(F)c1 [I-148, (R)-1-{4′-[3-({[1-(3,4-Difluorophenyl)ethoxy]carbonyl}amino)-5-fluorothiophen-2-yl]-[1,1′-biphenyl]-4-yl}cyclopropanecarboxylic acid]",≤ 200
16,"COc1cc(-c2sc(Cl)cc2NC(=O)O[C@H](C)c2ccc(F)cc2Cl)ccc1-c1ccc(C2(C(=O)O)CC2)cc1 [I-396, (R)-1-{4′-[5-Chloro-3-({[1-(2-chloro-4-fluorophenyl)ethoxy]carbonyl}amino)thiophen-2-yl]-2′-methoxy-[1,1′-biphenyl]-4-yl}cyclopropanecarboxylic acid]",≤ 200
17,"COc1cc(-c2sc(F)cc2NC(=O)O[C@H](C)c2ccc(Cl)cc2)ccc1-c1ccc(C2(C(=O)O)CC2)cc1 [I-446, (R)-1-{4′-[3-({[1-(4-Chlorophenyl)ethoxy]carbonyl}amino)-5-fluorothiophen-2-yl]-2′-methoxy-[1,1′-biphenyl]-4-yl}cyclopropanecarboxylic acid]",≤ 200
18,"COc1cc(-c2sc(F)cc2NC(=O)O[C@H](C)c2ccc(F)cc2F)ccc1-c1ccc(C2(C(=O)O)CC2)cc1 [I-454, (R)-1-{4′-[3-({[1-(2,4-Difluorophenyl)ethoxy]carbonyl}amino)-5-fluorothiophen-2-yl]-2′-methoxy-[1,1′-biphenyl]-4-yl}cyclopropanecarboxylic acid]",≤ 200
19,"COc1cc(-c2sc(F)cc2NC(=O)O[C@H](C)c2ccc(F)cc2Cl)ccc1-c1ccc(C2(C(=O)O)CC2)cc1 [I-466, (R)-1-{4′-[3-({[1-(2-Chloro-4-fluorophenyl)ethoxy]carbonyl}amino)-5-fluorothiophen-2-yl]-2′-methoxy-[1,1′-biphenyl]-4-yl}cyclopropanecarboxylic acid]",≤ 200
20,"C[C@@H](OC(=O)Nc1cc(Cl)sc1-c1ccc(-c2ccc(C3(C(=O)O)CC3)cc2)c([N+](=O)[O-])c1)c1ccccc1 [I-490, (R)-1-[4′-(5-Chloro-3-{[(1-phenylethoxy)carbonyl]amino}thiophen-2-yl)-2′-nitro-[1,1′-biphenyl]-4-yl]cyclopropanecarboxylic acid]",≤ 200
21,"C[C@@H](OC(=O)Nc1cc(Cl)sc1-c1ccc(-c2ccc(C3(C(=O)O)CC3)cc2)c([N+](=O)[O-])c1)c1ccc(F)cc1 [I-498, (R)-1-{4′-[5-Chloro-3-({[1-(4-fluorophenyl)ethoxy]carbonyl}amino)thiophen-2-yl]-2′-nitro-[1,1′-biphenyl]-4-yl}cyclopropanecarboxylic acid]",≤ 200
22,"C[C@@H](OC(=O)Nc1cc(Cl)sc1-c1ccc(-c2ccc(C3(C(=O)O)CC3)cc2)c([N+](=O)[O-])c1)c1ccccc1Cl [I-502, (R)-1-{4′-[5-Chloro-3-({[1-(2-chlorophenyl)ethoxy]carbonyl}amino)thiophen-2-yl]-2′-nitro-[1,1′-biphenyl]-4-yl}cyclopropanecarboxylic acid]",≤ 200
23,C[C@@H](OC(=O)Nc1cc(Cl)sc1-c1ccc(-c2ccc(C3(C(=O)O)CC3)cc2)c(N)c1)c1ccccc1 [I-534],≤ 200
24,"C[C@@H](OC(=O)Nc1cc(Cl)sc1-c1ccc(-c2ccc(C3(C(=O)O)CC3)cc2)cc1)c1cccs1 [I-630, (R)-1-{4′-[5-Chloro-3-({[1-(thiophen-2-yl)ethoxy]carbonyl}amino)thiophen-2-yl]-[1,1′-biphenyl]-4-yl}cyclopropanecarboxylic acid]",≤ 200
25,"C[C@@H](OC(=O)Nc1cc(F)sc1-c1ccc(-c2ccc(C3(C(=O)O)CC3)cc2)cc1)c1cccs1 [I-674, (R)-1-{4′-[5-Fluoro-3-({[1-(thiophen-2-yl)ethoxy]carbonyl}amino)thiophen-2-yl]-[1,1′-biphenyl]-4-yl}cyclopropanecarboxylic acid]",≤ 200
26,"COc1cc(-c2sc(Cl)cc2NC(=O)O[C@H](C)c2cccs2)ccc1-c1ccc(C2(C(=O)O)CC2)cc1 [I-808, (R)-1-{4′-[5-Chloro-3-({[1-(thiophen-2-yl)ethoxy]carbonyl}amino)thiophen-2-yl]-2′-methoxy-[1,1′-biphenyl]-4-yl}cyclopropanecarboxylic acid]",≤ 200
